# Reference: patent publication US12576099B2, “Ribose-modified cap analog and use thereof” (Beijing Youcare Kechuang Pharmaceutical Technology Co., Ltd., priority 2024, dated 2026)
# Legend:
# BALB/C mice = assay: In vivo imaging of Fluc-mRNA LNP expression in mice
# Procedure: The LNP preparation containing 5 μg of cap analog-transcribed Fluc-mRNA was intramuscularly injected into female BALB/C mice aged 4 to 6 weeks and weighing 17 to 19 g. At specific time points after administration (6 hours, 12 hours, 24 hours, 48 hours, 96 hours, and 168 hours), the mice were intraperitoneally injected with fluorescence imaging substrate. The mice were then allowed to move freely for 5 minutes, followed by detection of the total radiation intensity of the protein expressed by LNP-carrying mRNA in the mice using an IVIS Spectrum small-animal in vivo imaging system (corresponding to the amount of protein expression).
# In the in vivo imaging experiments in mice, the multiple of the total radiation intensity for each group of mice relative to the m6A group is shown in Table 8 (where the total radiation intensity is represented as the given value×10^8 p/s).
# [1] = Characterization of lipid nanoparticles encapsulating Fluc-mRNA prepared from different cap structures; type: physicochemical; details: for Particle size: LNP (YK-009/DSPC/cholesterol/DMG-PEG2000) with Fluc-mRNA transcribed using the named cap analog; for PDI: LNP with Fluc-mRNA transcribed using the named cap analog; for EE: encapsulation efficiency of LNP with Fluc-mRNA transcribed using the named cap analog
# Procedure: Cationic lipid YK-009 (Beijing Youcare Kechuang Pharmaceutical Technology Co., Ltd.), DSPC (AVT (Shanghai) Pharmaceutical Technology Co., Ltd.), cholesterol (AVT (Shanghai) Pharmaceutical Technology Co., Ltd.), and DMG-PEG2000 were dissolved in ethanol at a molar ratio of 49:10:39.5:1.5, and the mRNA was diluted in 50 mM citrate buffer (pH=4). The ethanol lipid solution was mixed with the Fluc-mRNA aqueous solution prepared from different cap structures at a volume ratio of 1:3 using a microfluidic device at a flow rate of 10 mL/min to prepare LNPs at a weight ratio of total lipid to mRNA of approximately 15:1.
# The resulting liposomes were diluted to 10-fold volume with PBS, and then ultrafiltered with a 300 KDa ultrafiltration tube to remove ethanol. The volume was then fixed to a certain volume with PBS. Finally, the LNPs were filtered through a 0.2 μm sterile filter to obtain an LNP preparation encapsulating Fluc-mRNA using YK-009/DSPC/cholesterol/DMG-PEG2000 (at a molar ratio of 49:10:39.5:1.5).
# The particle size and polydispersity index (PDI) were determined by dynamic light scattering using a Malvern laser particle size analyzer. 10 μL of the liposome solution was taken, diluted to 1 mL with RNase-free deionized water, and added to a sample pool. Each sample was measured in triplicate. The measurement conditions were: a scattering angle of 90° and a temperature of 25° C. The encapsulation efficiency of LNPs was determined using the Quant-iT RiboGreen RNA Quantification Kit (Thermo Fisher Scientific, UK) according to the manufacturer's instructions.
# [2] = 6 h, 5 μg Fluc-mRNA LNP intramuscular, mice
# [3] = 12 h, 5 μg Fluc-mRNA LNP intramuscular, mice
# [4] = 24 h, 5 μg Fluc-mRNA LNP intramuscular, mice
# [5] = 48 h, 5 μg Fluc-mRNA LNP intramuscular, mice
# [6] = 96 h, 5 μg Fluc-mRNA LNP intramuscular, mice
# [7] = 168 h, 5 μg Fluc-mRNA LNP intramuscular, mice
Structure (SMILES),Multiple of total radiation intensity relative to m6A (BALB/C mice; 6 h),Total radiation intensity (BALB/C mice; [2]),Multiple of total radiation intensity relative to m6A (BALB/C mice; 12 h),Total radiation intensity (BALB/C mice; [3]),Multiple of total radiation intensity relative to m6A (BALB/C mice; 24 h),Total radiation intensity (BALB/C mice; [4]),Multiple of total radiation intensity relative to m6A (BALB/C mice; 48 h),Total radiation intensity (BALB/C mice; [5]),Multiple of total radiation intensity relative to m6A (BALB/C mice; 96 h),Total radiation intensity (BALB/C mice; [6]),Total radiation intensity (BALB/C mice; [7]),Particle size [1],PDI [1],EE [1],Total radiation intensity (BALB/C mice; at 12 hours),Total radiation intensity (BALB/C mice; at 48 hours),"Total radiation intensity, times that of N-7113 (BALB/C mice; at 12 hours)","Total radiation intensity, times that of YK-CAP-101 (BALB/C mice; at 12 hours)","Total radiation intensity, times that of N-7113 (BALB/C mice; at 48 hours)","Total radiation intensity, times that of YK-CAP-101 (BALB/C mice; at 48 hours)"
COC[C@]1(COP(=O)(O)OP(=O)(O)OP(=O)(O)OC[C@H]2O[C@@H](n3cnc4c(N)ncnc43)[C@H](OC)[C@@H]2OP(=O)(O)OC[C@H]2O[C@@H](n3cnc4c(=O)[nH]c(N)nc43)[C@H](O)[C@@H]2O)O[C@@H]([n+]2cn(C)c3c(=O)[nH]c(N)nc32)[C@H](O)[C@@H]1O [YK-CAP-117],3.8,8.99 ×108 p/s,3.8,8.00 ×108 p/s,3.2,2.08 ×108 p/s,3.3,1.73 ×108 p/s,0.9,0.35 ×108 p/s,0.02 ×108 p/s,72.56 nm,0.044,94.3%,–,–,–,–,–,–
CO[C@@H]1[C@H](OP(=O)(O)OC[C@H]2O[C@@H](n3cnc4c(=O)[nH]c(N)nc43)[C@H](O)[C@@H]2O)[C@@H](COP(=O)(O)OP(=O)(O)OP(=O)(O)OC[C@H]2OC([n+]3cn(C)c4c(=O)[nH]c(N)nc43)[C@H](O)[C@@H](O)[C@@H]2O)O[C@H]1n1cnc2c(N)ncnc21 (stereo partly shown) [YK-CAP-101],0.8,1.81 ×108 p/s,0.5,0.96 ×108 p/s,0.5,0.36 ×108 p/s,0.4,0.19 ×108 p/s,1.5,0.04 ×108 p/s,0.02 ×108 p/s,75.45 nm,0.043,93.4%,0.96 ×10^8 p/s,0.19 ×10^8 p/s,–,–,–,–
CO[C@@H]1[C@H](OP(=O)(O)OC[C@H]2O[C@@H](n3cnc4c(=O)[nH]c(N)nc43)[C@H](O)[C@@H]2O)[C@@H](COP(=O)(O)OP(=O)(O)OP(=O)(O)OC[C@@]2(C(F)F)O[C@@H]([n+]3cn(C)c4c(=O)[nH]c(N)nc43)[C@H](O)[C@@H]2O)O[C@H]1n1cnc2c(N)ncnc21 [YK-CAP-119],3.2,7.47 ×108 p/s,3.1,6.65 ×108 p/s,3.3,2.15 ×108 p/s,2.4,1.26 ×108 p/s,1.3,0.25 ×108 p/s,0.02 ×108 p/s,82.45 nm,0.057,94.6%,–,–,–,–,–,–
CO[C@@H]1[C@H](OP(=O)(O)OC[C@H]2O[C@@H](n3cnc4c(=O)[nH]c(N)nc43)[C@H](O)[C@@H]2O)[C@@H](COP(=O)(O)OP(=O)(O)OP(=O)(O)OC[C@H]2O[C@@H]([n+]3cn(C)c4c(=O)[nH]c(N)nc43)[C@H](O)[C@@H]2C(F)F)O[C@H]1n1cnc2c(N)ncnc21 [YK-CAP-110],4.1,9.52 ×108 p/s,5.0,10.55 ×108 p/s,4.6,3.04 ×108 p/s,4.4,2.30 ×108 p/s,1.0,0.27 ×108 p/s,0.04 ×108 p/s,69.64 nm,0.033,97.7%,10.55 ×10^8 p/s,2.30 ×10^8 p/s,2.4 times,11.0 times,4.7 times,12.1 times
CO[C@@H]1[C@H](OP(=O)(O)OC[C@H]2O[C@@H](n3cnc4c(=O)[nH]c(N)nc43)[C@H](O)[C@@H]2O)[C@@H](COP(=O)(O)OP(=O)(O)OP(=O)(O)OC[C@@]2(CF)O[C@@H]([n+]3cn(C)c4c(=O)[nH]c(N)nc43)[C@H](O)[C@@H]2O)O[C@H]1n1cnc2c(N)ncnc21 [YK-CAP-118],3.0,7.06 ×108 p/s,3.0,6.28 ×108 p/s,3.1,2.03 ×108 p/s,2.6,1.33 ×108 p/s,1.2,0.35 ×108 p/s,0.02 ×108 p/s,75.84 nm,0.055,97.2%,–,–,–,–,–,–
COC(C)[C@H]1[C@@H](O)[C@H]([n+]2cn(C)c3c(=O)[nH]c(N)nc32)O[C@@H]1COP(=O)(O)OP(=O)(O)OP(=O)(O)OC[C@H]1O[C@@H](n2cnc3c(N)ncnc32)[C@H](OC)[C@@H]1OP(=O)(O)OC[C@H]1O[C@@H](n2cnc3c(=O)[nH]c(N)nc32)[C@H](O)[C@@H]1O (stereo partly shown) [YK-CAP-107],3.4,8.09 ×108 p/s,3.2,6.87 ×108 p/s,2.9,1.92 ×108 p/s,1.2,0.60 ×108 p/s,2.5,0.11 ×108 p/s,0.03 ×108 p/s,78.42 nm,0.053,96.3%,–,–,–,–,–,–
CO[C@@H]1[C@H](OP(=O)(O)OC[C@H]2O[C@@H](n3cnc4c(=O)[nH]c(N)nc43)[C@H](O)[C@@H]2O)[C@@H](COP(=O)(O)OP(=O)(O)OP(=O)(O)OC[C@H]2O[C@@H]([n+]3cn(C)c4c(=O)[nH]c(N)nc43)[C@H](O)[C@@H]2C(C)NC(C)=O)O[C@H]1n1cnc2c(N)ncnc21 (stereo partly shown) [YK-CAP-108],2.7,6.42 ×108 p/s,2.8,6.03 ×108 p/s,2.6,1.70 ×108 p/s,2.0,1.04 ×108 p/s,1.3,0.19 ×108 p/s,0.02 ×108 p/s,83.13 nm,0.023,96.4%,–,–,–,–,–,–
